# Where a name gives a salt, the structure may show the parent alone.
# What was measured:
# [1] = Test Example 6: stability of respective vitamins on storage of infusion formulation of Example 11; assay type: physicochemical; conditions: in infusion formulation of Example 11, percentage based on the mixed amount; for residual rate (content), storage for 3 months / residual rate (content), storage for 1 month: 40° C. and 75% RH
# Description: In addition, the content is expressed as a percentage based on the mixed amount. From the results, it is considered that the infusion formulation of the present invention remains stable even when stored for a long time.
# [2] = Test Example 7: stability of mixed solution of Example 11; assay type: physicochemical; conditions: mixed solution of Example 11, room temperature, light-shielded; value immediately after mixing = 100%
# Protocol: Regarding the infusion formulations prepared in Example 11, the partition portions were opened to thoroughly mix the sugar solution with the amino acid solution at room temperature, and then the mixed solution was sampled after 0 hours, 24 hours, and 48 hours to measure the content of the respective vitamins and N-acetyl cysteine. In addition, the mixed solution was stored in a light-shielded environment. The value measured immediately after mixing was taken as 100%, and the content at each point in time of measurement is expressed as a percentage. All of the respective components remained stable until 48 hours elapsed after mixing.
Compound,"residual rate (content), storage for 3 months [1]",residual rate (content) immediately after sterilization [1],content after 24 hours [2],content after 48 hours [2],"residual rate (content), storage for 1 month [1]"
O=C(O)CCCC[C@@H]1SC[C@@H]2NC(=O)N[C@@H]21 [Biotin],91.4%,93.6%,97.9%,96.7%,
Nc1nc2ncc(CNc3ccc(C(=O)N[C@@H](CCC(=O)O)C(=O)O)cc3)nc2c(=O)[nH]1 [Folic acid],89.7%,95.8%,96.4%,96.2%,96.5%
CC(=O)N[C@@H](CS)C(=O)O [N-acetyl cysteine],,,98.3%,97.5%,
NC(=O)c1cccnc1 [Nicotinamide],99.6%,100.9%,96.6%,97.2%,101.5%
CC(C)(CO)[C@@H](O)C(=O)NCCCO [Panthenol],96.8%,97.8%,100.0%,100.2%,97.6%
"Cc1ncc(C[n+]2csc(CCO)c2C)c(N)n1 [Vitamin B1, Thiamine hydrochloride]",83.5%,93.3%,99.4%,94.1%,90.6%
"Cc1cc2nc3c(=O)[nH]c(=O)nc-3n(C[C@H](O)[C@H](O)[C@H](O)COP(=O)([O-])O)c2cc1C.[Na+] [Vitamin B2, Riboflavin sodium phosphate]",92.6%,94.7%,,99.8%,94.3%
"Cc1ncc(CO)c(CO)c1O.Cl [Vitamin B6, Pyridoxine hydrochloride]",97.3%,97.1%,100.6%,99.9%,96.7%
"O=C1O[C@H]([C@@H](O)CO)C(O)=C1O [Vitamin C, Ascorbic acid]",99.7%,96.1%,97.1%,92.2%,97.6%
Cyanocobalamin [Vitamin B12],91.2%,86.3%,96.0%,97.9%,89.7%

# Source: patent publication US9861575B2, “Vitamin-containing nutrition infusion for administration through peripheral vein” (AJINOMOTO CO., INC., priority 2010, dated 2018)
